One experiment has as its system S. rolfsii. Put plainly: Fungicidal activity assay on PDA in sealed Petri dish (growth inhibition and mortality). In kind it is cell-based, Sclerotinia rolfsii. The settings on record: for MFC: Agroathelia rolfsii, read-out: M - Mortality, minimal concentration that killed the fungus. As to the method:
(§1) Each compound was placed on a disconnected cover from an Eppendorf tube that was located in the middle of the Petri dish and a hyphae-containing plug of each test fungus was added to the culture plate. In exemplary procedures, the tested compounds trans-2-heptenal, trans-2-octenal were tested in comparison with octanal, trans-2-octen-1-ol, methyl trans-2-octenoate, trans-3-octen-2-one and 3-pentenenitrile. In addition, cyclic ketones as 2-cyclopenten-1-one, 2-cyclohexen-1-one and α-tetralone were also examined. Then, the culture plate was sealed with parafilm and incubated at room-temperature for 2 days, after which the growth of the test fungi in those dishes was compared with those in the test compound-free control dishes. At the end of the assay, the viability of each test fungus was evaluated by transferring inoculum plugs to fresh PDA plates and observing the growth that developed within the next 2 days. The test fungi used in this study included but were not limited to Alternaria alternata, Botrytis cinerea, Sclerotinia rolfsii, Penicillium digitatum, Fusarium oxysporum f. sp. radicis-cucumerinum and Rhizoctonia solani.

Another experiment relates to B. cinerea. Described as above. The class given is cell-based, Botrytis cinerea. The note with it: Botrytis cinerea, NA + number = still viable in the highest concentration tested (given as >), read-out: M - Mortality, minimal concentration that killed the fungus. On the procedure: as §1, with “In exemplary procedures, the fungicidial activity of the compounds listed in Table 2 were examined by activity assays as follow: Petri dishes, 90 mm in diameter, with air volume of 80 mL, contained 10-12 mL of growth medium comprising potato dextrose agar (PDA) (Acumedia, Lansing, Michigan, USA) amended with tetracycline at 12 μg/mL. Each” for “Each”

Another experiment has as its system P. digitatum. Described as above. The class given is cell-based, Penicillium digitatum. The settings on record: Penicillium digitatum, NA + number = still viable in the highest concentration tested (given as >), read-out: M - Mortality, minimal concentration that killed the fungus. As to the method: as §1, with “In exemplary procedures, the fungicidial activity of the compounds listed in Table 2 were examined by activity assays as follow: Petri dishes, 90 mm in diameter, with air volume of 80 mL, contained 10-12 mL of growth medium comprising potato dextrose agar (PDA) (Acumedia, Lansing, Michigan, USA) amended with tetracycline at 12 μg/mL. Each” for “Each”

For another experiment, the system named is A. alternata. Described as above. The class given is cell-based, Alternaria alternata. The note with it: Alternaria alternata, NA + number = still viable in the highest concentration tested (given as >), read-out: M - Mortality, minimal concentration that killed the fungus. On the procedure:
as §1, with “In exemplary procedures, the fungicidial activity of the compounds listed in Table 2 were examined by activity assays as follow: Petri dishes, 90 mm in diameter, with air volume of 80 mL, contained 10-12 mL of growth medium comprising potato dextrose agar (PDA) (Acumedia, Lansing, Michigan, USA) amended with tetracycline at 12 μg/mL. Each” for “Each”

Experiment [1] concerns F. oxysporum f. sp. radicis-cucumerium. Described as above. The note with it: for MFC: Fusarium oxysporum, read-out: M - Mortality, minimal concentration that killed the fungus. In kind it is cell-based, Fusarium oxysporum f. sp. radicis-cucumerinum. On the procedure:
as §1

Another experiment has as its system R. solani. The experiment is described as follows: microbe, parasite or virus in culture. The class given is cell-based. The settings on record: R. solani; for MFC: Rhizoctonia solani, read-out: M - Mortality, minimal concentration that killed the fungus. On the procedure:
as §1

A further experiment deals with test fungi. The experiment is described as follows: Fungicidal activity assay on PDA, summaries over the test fungi. In kind it is cell-based. The settings on record: for fungicidal activity in words: comparison within the series. On the procedure: as §1, with “In exemplary procedures, the fungicidial activity of the compounds listed in Table 2 were examined by activity assays as follow: Petri dishes, 90 mm in diameter, with air volume of 80 mL, contained 10-12 mL of growth medium comprising potato dextrose agar (PDA) (Acumedia, Lansing, Michigan, USA) amended with tetracycline at 12 μg/mL. Each” for “Each”

Where [2] appears, read: S. rolfsii, NA + number = still viable in the highest concentration tested (given as >).
[3] abbreviates: NA + number = still viable in the highest concentration tested (given as >).
The mark [4] stands for this setting: concentration to which the class above belongs.

Where two headings read alike, the source gives them in different places.

With `COc1ccc(C=O)cc1` [p-Anisaldehyde], the MFC in the experiment with S. rolfsii is over 1250 µg/mL.

`CCOC(=O)C=Cc1ccccc1` [Ethyl cinnamate]: the MFC in the experiment on B. cinerea, in the experiment with S. rolfsii (setting [2]), in the experiment on P. digitatum and with A. alternata was over 1250 µg/mL throughout.

On to `CC=CCC#N` [3-pentenenitrile], for which the MFC (in experiment [1] (setting [3]); in the experiment with S. rolfsii (setting [2]); in the experiment with R. solani (setting [3])) was over 25 µg/mL in each case.

In the case of `CC(C)=CCCC(C)=CCCC(C)=CCO` [Farnesol], the MFC in the experiment with B. cinerea, with S. rolfsii (setting [2]), with P. digitatum and in the experiment on A. alternata was over 1250 µg/mL in each case.

On to `CCCCC/C=C/C(=O)OC` [Methyl trans-2-octenoate], for which the MFC in the experiment on B. cinerea, in the experiment with S. rolfsii (setting [2]), in the experiment on P. digitatum and in the experiment on A. alternata was 125 µg/mL each time. The “concentration that completely inhibited the fungi growth” value with test fungi (dependent on the fungus tested) turned out to be 125 ppm.

On to `CCCC(=O)CCC` [4-heptanone], for which the MFC was 1250 µg/mL in the experiment on B. cinerea, 2500 µg/mL with S. rolfsii (setting [2]), over 2500 µg/mL in the experiment with P. digitatum and 2500 µg/mL in the experiment on A. alternata.

For `CCCCCCCCCC=O` [Decanal], the MFC (in experiment [1] (setting [3]); in the experiment with S. rolfsii (setting [2]); with R. solani (setting [3])) was over 25 µg/mL in each case.

`CCCCCC/C=C/C=O` [trans-2-nonenal]: the MFC was 6.25 µg/mL in experiment [1] (setting [3]), over 25 µg/mL with S. rolfsii (setting [2]) and over 25 µg/mL in the experiment with R. solani (setting [3]).

With `CCCC/C=C/C(C)=O` [trans-3-octen-2-one], the MFC in the experiment on B. cinerea, in the experiment with S. rolfsii (setting [2]), with P. digitatum and with A. alternata was 50 µg/mL each time. The “concentration that completely inhibited the fungi growth” value in the experiment on test fungi (dependent on the fungus tested) is 50 ppm.

For `CCCCCCCCC=O` [Nonanal], the MFC in experiment [1] (setting [3]) was over 25 µg/mL; in the experiment on S. rolfsii (setting [2]), 25 µg/mL; in the experiment with R. solani (setting [3]), over 25 µg/mL.

For `CCCC/C=C/C=O` [trans-2-heptenal], the MFC in experiment [1] (setting [3]) came to 12.5 µg/mL; with B. cinerea, 125 µg/mL; in the experiment on S. rolfsii (setting [2]), 6.25 µg/mL; with R. solani (setting [3]), 12.5 µg/mL; in the experiment on P. digitatum, 12.5 µg/mL; in the experiment on A. alternata it was 12.5 µg/mL. In addition, the “concentration that completely inhibited the fungi growth” value in the experiment with test fungi (dependent on the fungus tested) is given as 6.25-25 ppm. For the same compound, the “concentrations at which fungi were not viable” value with test fungi (dependent on the fungus tested) is on record as 6.25-125 ppm.

Regarding `O=C/C=C/c1ccccc1` [trans-cinnamaldehyde], the MFC in the experiment on S. rolfsii (setting [2]) is over 1250 µg/mL.

Take `CC/C=C/C=O` [trans-2-pentenal]: the MFC (in experiment [1] (setting [3]); in the experiment on B. cinerea; in the experiment on S. rolfsii (setting [2]); in the experiment with R. solani (setting [3]); with P. digitatum; in the experiment on A. alternata) was 25 µg/mL in each case.

`CCCCCCCCCCCC=O` [Lauric aldehyde]: the “I - Inhibition class” value in experiment [1] (2 days) is recorded as “NI (<50% growth inhibition)”; in the experiment with S. rolfsii (S. rolfsii, 2 days), “NI (<50% growth inhibition)”; in the experiment on R. solani (2 days) it was “NI (<50% growth inhibition)”. In addition, the “M - Mortality, minimal concentration that killed the fungus” value (in experiment [1] (setting [3]); in the experiment with S. rolfsii (setting [2]); in the experiment with R. solani (setting [3])) was over 25 ppm throughout. The “I - Inhibition, minimal concentration that inhibited the growth” value worked out at 25 ppm in experiment [1] (setting [4]); 25 ppm with S. rolfsii (S. rolfsii, concentration to which the class above belongs); 25 ppm with R. solani (setting [4]). Moreover, the “fungicidal activity in words” value in the experiment on test fungi is given as “lower activity”.

Turning to `CCCCC/C=C/C(=O)O` [trans-2-octenoic acid], the MFC in the experiment with B. cinerea, in the experiment with S. rolfsii (setting [2]), in the experiment on P. digitatum and in the experiment on A. alternata was over 125 µg/mL throughout.

Consider `CCC/C=C/C=O` [trans-2-hexen-1-al], for which the MFC in experiment [1] (setting [3]) is 25 µg/mL; with S. rolfsii (setting [2]), 12.5 µg/mL; with R. solani (setting [3]), 12.5 µg/mL.

On to `CCCCCCC/C=C/C=O` [trans-2-decenal], for which, in the experiment with test fungi, the “fungicidal activity in words” value is “lower activity”.

Turning to `CC(C)CC(=O)CC(C)C` [2,6-dimethyl-4-heptanone], the MFC in the experiment on B. cinerea is over 2500 µg/mL; in the experiment on S. rolfsii (setting [2]) it was 2500 µg/mL; in the experiment on P. digitatum it was over 2500 µg/mL; in the experiment on A. alternata, over 2500 µg/mL.

As for `CC(C)=CCCC(C)=CC=O` [Citral], the MFC was 25 µg/mL in the experiment with B. cinerea, 25 µg/mL in the experiment on S. rolfsii (setting [2]), over 125 µg/mL in the experiment with P. digitatum and 25 µg/mL in the experiment with A. alternata.

As for `CCCCC/C=C/CO` [trans-2-octen-1-ol], the MFC with B. cinerea is 500 µg/mL; in the experiment with S. rolfsii (setting [2]), 80 µg/mL; with P. digitatum, 50 µg/mL; with A. alternata, 125 µg/mL. Also, the “concentration that completely inhibited the fungi growth” value in the experiment with test fungi (dependent on the fungus tested) was found to be 50 ppm.

Regarding `CCCCCCCC=O` [Octanal], the MFC in experiment [1] (setting [3]) was over 25 µg/mL; in the experiment on S. rolfsii (setting [2]), over 25 µg/mL; in the experiment on R. solani (setting [3]), 12.5 µg/mL. Besides, in the experiment on test fungi, the “fungicidal activity in words” value is “less fungicidal efficiency”.

The values above are taken from patent US11998008B2, “Pesticides and methods of controlling pests” (The State of Israel, Ministry of Agriculture & Rural …, priority 2017, dated 2024).
